Source: US6469052B2, “Compounds for the photodecontamination of pathogens in blood” (Cerus Corporation, priority 1993, dated 2002)
Like-named read-outs stand apart in the source and are kept apart here.

Key:
[1] = tested on: Salmonella typhimurium TA100
From the text: (§1) The second property that is important in testing a compound for use in methods of the present invention is mutagenicity. The most widely used mutagen/carcinogen screening assay is the Ames test. This assay is described by D. M. Maron and B. N. Ames in Mutation Research 113: 173 ( 1983) and a specific screen is described in detail in Example 17, below. The Ames test utilizes several unique strains of Salmonella typhimurium that are histidine- dependent for growth and that lack the usual DNA repair enzymes. The frequency of normal mutations that render the bacteria independent of histidine (i.e., the frequency of spontaneous revertants) is low. The test allows one to evaluate the impact of a compound on this revertant frequency.
(§2) In this example the compounds of the present invention are tested for their dark mutagenicity using an Ames assay. The procedures used for the Salmonella mutagenicity test as described in detail by Maron and Ames were followed exactly. Maron, D. M. and B. N. Ames, Mutation Research 113: 173 ( 1983). A brief description for each procedure is given here. The tester strains TA97a, TA98, TA100, TA102, TA1537 and TA1538 were obtained from Dr. Ames. TA97a, TA98, TA1537 and TA1538 are frameshift tester strains. TA100 and TA102 are base-substitution tester strains. Upon receipt each strain was cultured under a variety of conditions to confirm the genotypes specific to the strains.
(§3) The first tests done with the strains were to determine the range of spontaneous reversion for each of the strains. With each mutagenicity experiment the spontaneous reversion of the tester strains to histidine independence was measured and expressed as the number of spontaneous revertants per plate. This served as the background controls.
(§4) For all experiments, the pre-incubation procedure was used. In this procedure one vial of each tester strain was thawed and 20 μL of this culture was added to 6 mL of Oxoid Nutrient Broth #2. This solution was allowed to shake for 10 hours at 37° C. In the pre-incubation procedure, 0.1 mL of this overnight culture was added to each of the required number of sterile test tubes. To half of the tubes 0.5 mL of a 10% S-9 solution containing Aroclor 1254 induced rat liver extract (Molecular Toxicology Inc., Annapolis, Md.), and MgCl2, KCl, glucose-6-phosphate, NADP, and sodium phosphate buffer (Sigma, St. Louis, Mo.) were added. To the other half of the tubes 0.5 mL of 0.2M sodium phospate buffer, pH 7.4, was used in place of the S-9 mixture (the -S9 samples). Finally 0.1 mL of the test solution containing either 0, 0.1, 0.5, 1, 5, 10, 50, 100, 250, or 500 μg/mL of the test compound was added. The 0.7 mL mixture was vortexed and then pre-incubated while shaking for 20 minutes at 37° C. After shaking, 2 mL of molten top agar supplemented with histidine and biotin were added to the 0.7 mL mixture and immediately poured onto a minimal glucose agar plate (volume of base agar was 20 mL). The top agar was allowed 30 minutes to solidify and then the plates were inverted and incubated for 44 hours at 37° C. After incubation the number of revertant colonies on each plate were counted. […] (“n” represents the number of replicates performed for each data point.)
(§5) Maron and Ames (1983) describe the conflicting views with regard to the statisical treatment of data generated from the test.

mouse reticulocytes = settings: increased dose levels, male Balb/c mice, tail vein
Experimental: Male Balb/c mice were then injected with 0.1 ml of a compound solution via the tail vein. At least 3 mice were injected per dose level. Saline only was used as a negative control. For a positive control, cyclophosphamide (cycloPP) was administered at a dose of 30 mg/kg. In the experimental group, the injections were repeated once per day for four days. In the positive control group, the sample was administered only once, on day three. On day 5, several microliters of blood were withdrawn from each subject and smeared on a glass slide. Cells were fixed in absolute methanol and stored in a slide rack.
For analysis, cells were stained with acridine orange and visualized under a fluorescence microscope by counting: (i) the number of reticulocytes per 5000 erythrocytes; and (ii) the number of micronucleated reticulocytes per 1000 reticulocytes. Reticulocytes were distinguished by their red fluorescence due to the presence of RNA. Micronuclei were distinguished by their green fluorescence due to the presence of DNA. The percentage of reticulocytes (%PCE) was then calculated. A decrease in the frequency of […] in the percentage of reticulocytes, is an indication of bone marrow toxicity. The percentage of reticulocytes with micronuclei (%PCE with MN) was also calculated. An increase in %PCE with MN is a measure of clastogenicity.
After initial results were determined, the experiment was repeated using increased dose levels, until: (i) Micronucleus formation was seen; or (ii) Bone marrow toxicity was observed; or (ii) The lethal dose was reached; or (iv) A dose of 5 g/kg was administered.

[2] = tested on: Chinese hamster ovary (CHO) cells; experiment: In vitro genotoxicity screen in CHO cells; format: cell-based; settings: approximately 3 hours exposure in the dark, dilutions 1-1000 μg/ml
From the text: The positive control was methylmethane sulfonate.
Coverslips were mounted with Permount.

[3] = tested on: Salmonella typhimurium TA1538; experiment: Ames assay (dark mutagenicity), strain TA1538
From the text: as §1, §2, §3, §4, §5

Row | SMILES | revertants per plate ([1]; TA100 +S9, 5 μg/plate) | revertants per plate ([1]; TA100 +S9, 10 μg/plate) | revertants per plate ([1]; TA100 +S9, 50 μg/plate) | revertants per plate ([1]; TA100 +S9, 100 μg/plate) | revertants per plate ([1]; TA100 −S9, 5 μg/plate) | revertants per plate ([1]; TA100 −S9, 10 μg/plate) | revertants per plate ([1]; TA100 −S9, 50 μg/plate) | revertants per plate ([1]; TA100 −S9, 100 μg/plate) | outcome of dose escalation in the micronucleus assay (mouse reticulocytes) | genotoxic (toxic) concentration [2] | revertants per plate ([3]; TA1538 −S9, 5 μg/plate) | revertants per plate ([3]; TA1538 −S9, 10 μg/plate) | revertants per plate ([1]; TA100 +S9, 250 μg/plate)
1 | Cc1oc2c(C)c3oc(=O)cc(C)c3cc2c1COCCN [Compound 2, 4′-(4-amino-2-oxa)butyl-4,5′,8-trimethylpsoralen] | −18 | 1 | 115 | 96 | 103 | 46 | 182 | 121 | the acutely lethal dose was reached before there were any signs of bone marrow toxicity or micronucleus formation | 100 µg/mL | −8 | −13 | 
2 | Cc1oc2c(C)c3oc(=O)cc(C)c3cc2c1CNCCCCN [Compound 6, 4′-(6-amino-2-aza)hexyl-4,5′,8-trimethylpsoralen] | 12 | −5 | 24 | −2 |  |  |  |  | the acutely lethal dose was reached before there were any signs of bone marrow toxicity or micronucleus formation | 100 µg/mL | −5 | −2 | −38
